Assay type in all cases: biochemical
Data set [1] has as its target T1, lysyl hydroxylase activity of His-tagged LH3 (Homo sapiens, UniProt O60568).
T1 construct: human LH1 signal peptide (N, cleaved yes); made in house; host or cells: Sf9 insect cells, baculovirus
T1 sequence (O60568 25-738): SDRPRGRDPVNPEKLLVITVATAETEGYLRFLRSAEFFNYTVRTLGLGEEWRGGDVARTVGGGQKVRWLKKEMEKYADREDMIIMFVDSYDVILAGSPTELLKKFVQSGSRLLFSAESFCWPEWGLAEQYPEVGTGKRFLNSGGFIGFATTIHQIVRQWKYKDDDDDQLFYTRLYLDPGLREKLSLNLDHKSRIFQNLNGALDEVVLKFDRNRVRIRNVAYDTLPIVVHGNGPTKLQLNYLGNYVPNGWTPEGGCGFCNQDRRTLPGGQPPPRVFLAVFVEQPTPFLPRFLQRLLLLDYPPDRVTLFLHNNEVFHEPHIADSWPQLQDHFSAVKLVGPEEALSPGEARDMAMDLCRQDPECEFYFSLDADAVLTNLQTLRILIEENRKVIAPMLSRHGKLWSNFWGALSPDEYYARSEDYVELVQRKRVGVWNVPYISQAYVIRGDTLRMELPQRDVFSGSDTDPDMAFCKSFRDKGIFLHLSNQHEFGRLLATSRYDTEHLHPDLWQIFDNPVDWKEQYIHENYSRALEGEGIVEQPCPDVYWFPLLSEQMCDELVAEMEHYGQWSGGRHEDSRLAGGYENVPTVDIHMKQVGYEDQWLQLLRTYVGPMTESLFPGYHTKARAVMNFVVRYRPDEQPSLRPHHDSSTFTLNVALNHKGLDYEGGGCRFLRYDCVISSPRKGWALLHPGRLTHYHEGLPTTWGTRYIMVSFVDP
The experiment in a line: Inactivation of lysyl hydroxylase activity by imidazole. The protocol:
(§1) LH activity was assayed by a method based on the hydroxylation-coupled decarboxylation of 2-oxo(1-^14C)glutarate (Kivirikko and Myllylä 1982), synthetic peptide […] was used as a substrate. GGT activity was assayed as described elsewhere (Myllylä et al. 1975). The method is based on the transfer of radioactively (tritium) labelled glucose from UDP-glucose to galactosylhydroxylysyl residues in calf skin gelatin substrate and on the specific assay of the product of the enzyme reaction after alkaline hydrolysis.
(§2) LH3 was expressed in Sf9 cells as a protein with His-tag at the amino-terminus. This enabled us to use nickel column in the purification of the protein from the cell extract of insect cells, because nickel-charged agaroses are developed for the purification of recombinant proteins containing a polyhistidine (6×His) as a tag. […] No lysyl hydroxylase activity could be detected in the eluate, however. We have determined that imidazole is a potent inhibitor of lysyl hydroxylase activity. […] Imidazole in the concentration of 100 mM and 10 mM inactivated lysyl hydroxylase activity by 55% and 20%, respectively.

The target of data set [2] is T2, GT activity of the protein produced in E. coli cells with human LH3 cDNA (Homo sapiens, UniProt O60568).
T2 construct: made in house; host or cells: E. coli XL1-Blue (pQE30)
T2 sequence (O60568 25-738): T1 sequence (O60568 25-738)
Kind of data set: Effect of imidazole on GT activity of protein produced in E. coli with human LH3 cDNA. How it is done: (§3) PFastBacI constructs for human LH1, LH2a, LH2b and LH3 were cleaved with BamHI and Hind III restriction enzymes and coding regions were subcloned into same site in E. coli expression vector pQE30 containing (His)6 tag at the amino terminus. Insert for C. elegans LH (corresponding to amino acids 14-730 in cDNA) was generated by PCR and ligated into SacI-PstI site of pOE30 vector. Constructs were transformed into E. coli XL1-Blue strain. Cultures were grown to OD600 of 0.6 at 37° C. Protein expression was induced by adding 1 mM IPTG and incubation was proceed at 30° C. for 5 hours. Cells were harvested and stored at −20° C. For activity measurements cell pellet was suspended to lysis buffer (0.4 M NaCl, 0.5% Nonident and 20 mM Tris-HCl pH 7.8, at 20° C.) and incubated in the presence of lysozyme (50 μg/ml), DNAase (10 μg/ml) and RNAase (10 μg g/ml) at room temperature for 30 minutes. Lysis was completed by sonication. Cell debris was pelleted and supernatant was used in the measurements.
(§4) GT and GGT activities were measured by a method based on the transfer of radioactively (tritium)-labeled sugar from UDP-sugar to hydroxylysyl or galactosylhydroxylysyl residues in a calf skin gelatin substrate, respectively (Myllylä et al. 1975). The specific detection of the reaction products was performed after alkaline hydrolysis.

For data set [3], the target named is T3, GGT activity of the protein produced in E. coli cells with human LH3 cDNA (Homo sapiens, UniProt O60568).
T3 construct: made in house; host or cells: E. coli XL1-Blue (pQE30)
T3 sequence (O60568 25-738): T1 sequence (O60568 25-738)
Kind of data set: Effect of imidazole on GGT activity of protein produced in E. coli with human LH3 cDNA. How it is done: as §3, §4

Data set [4] concerns the target T4, GGT activity of His-tagged LH3 (Homo sapiens, UniProt O60568).
T4 construct: human LH1 signal peptide (N, cleaved yes); made in house; host or cells: Sf9 insect cells, baculovirus (pFastBacI, BAC-TO-BAC)
T4 sequence (O60568 25-738): T1 sequence (O60568 25-738)
The experiment in a line: Effect of imidazole on GGT activity of His-tagged LH3 from Sf9 cells. How it is done: as §1, §2

In data set [5] the test system is hydroxylysyl residues in a calf skin gelatin substrate. The experiment in a line: GT (galactosyltransferase) activity of recombinant proteins expressed in E. coli. The conditions noted are these: E. coli cell supernatant, FIG. 12.
Description: The galactosyltransferase activity can be assayed as described in Myllylä et al. (1975). The method is based on the transfer of radioactively (tritium) labelled galactose from UDP-galactose to hydroxylysyl residues in calf skin gelatin substrate and on the specific assay of the product of the enzyme reaction after alkaline hydrolysis.
Data set [6] deals with synthetic peptide IKGIKGIKG
The experiment in a line: LH activity of human LH isoforms expressed in E. coli. The conditions noted are these: E. coli expression system, data not shown.
Description: The lysyl hydroxylase activity can be assayed by a method based on the hydroxylation-coupled decarboxylation of 2-oxo(1-^14C)glutarate (Kivirikko and Myllylä 1982), synthetic peptide […] was used as a substrate.
as §3

In data set [7] the test system is galactosylhydroxylysyl residues in calf skin gelatin substrate. Kind of data set: GGT (glucosyltransferase) activity of recombinant proteins expressed in Sf9 insect cells. The conditions noted are these: Sf9 cells, 72 hours after infection.
Description: The glucosyltransferase activity can be assayed as described in Myllylä et al. (1975). The method is based on the transfer of radioactively (tritium) labelled glucose from UDP-glucose to galactosylhydroxylysyl residues in calf skin gelatin substrate and on the specific assay of the product of the enzyme reaction after alkaline hydrolysis.
Commercially available baculovirus transfer vector pFastBacI in the BAC-TO-BAC™ expression system (Life technologies, Inc.) was modified to contain human LH1 signal peptide (Hautala et al., 1992) and His6 tag, and BamHI restriction site for insertion of the desired cDNA, nucleotides 289-2455 of LH3 cDNA (SEQ ID NO 6) (Valtavaara et al., 1998). The construct was confirmed by sequencing. The recombinant protein contains His tag at the amino-terminus after signal peptide cleavage. Insect cells were harvested 0-72 hours after infection and homogenized according to the protocol described earlier (Valtavaara et al., 1997).
Human LH1 signal peptide and His6 tag was inserted to the cDNA constructs of LH1 and LH2. The baculovirus transfer vector pFastBacI was modified so that human LH1 signal sequence followed by nine nucleotides of the amino-terminal end was ligated to the His6 tag followed by nucleotides for BamHI restriction site. The human cDNA sequence (LH1 or LH2) (SEQ ID NO 21, 23 and 25) starting from the likely amino-terminal end of the molecule was ligated to the BamHI site of the construct. Two expression constructs were generated for LH2, LH2a and LH2b (SEQ ID NO 23 and 25), both of them covered the nucleotides from 76 to 2267 (Valtavaara et al., 1997). The LH2b construct contained also the alternatively spliced exon sequence (Valtavaara 1999; Yeowell and Walker, 1999) between nucleotides 1500 and 1501 (SEQ ID NO 25). The constructs were confirmed by sequencing. Insect cells were grown and homogenized as described above.
as §1

The test system of data set [8] is hydroxylysyl residues in a calf skin gelatin substrate. Kind of data set: GT activity of recombinant proteins expressed with baculovirus vector in Sf9 cells. The conditions noted are these: baculovirus vector in insect cells, not shown. How it is done:
Baculovirus transfer vector pFastBacI in the BAC-TO-BAC™ expression system was used to produce LH3 protein in Sf9 cells. The cDNA construct is in Example 1. The recombinant protein contains the His tag at the amino terminus after signal peptide cleavage. The cells were homogenized as described elsewhere (Valtavaara et al. 1997).
as §4

The subject of data set [9] is galactosylhydroxylysyl residues in a calf skin gelatin substrate. The experiment in a line: GGT activity of recombinant proteins expressed in E. coli. The conditions noted are these: E. coli supernatant, 5 h IPTG induction, stored at −70° C. overnight; listed as LH cDNA.

Where “and” joins values, the source holds several entries; their conditions need not be identical. Identical values can stand only once.

On to `c1c[nH]cn1` [imidazole], for which the “inactivation of lysyl hydroxylase activity” value in [1] (10 mM imidazole) is 20%; in [1] (100 mM imidazole), 55%; in data set [1] (300 mM imidazole, 2 h on ice) it was “almost complete inactivation”. In addition, the GT activity turned out to be 795.000 dpm/mg in [2] (10 mM imidazole (no inhibitor: 760.000)), 605.000 dpm/mg in [2] (100 mM imidazole (no inhibitor: 760.000)) and 310.000 dpm/mg in [2] (300 mM imidazole (no inhibitor: 760.000)). Moreover, the values for the inhibition at 300000 µM in data set [2] (300 mM imidazole), in data set [3] (300 mM imidazole) and in [4] (300 mM imidazole) were 60%, roughly 30% and 25%, respectively. Moreover, the GGT activity in [3] (10 mM imidazole (no inhibitor: 667.000)) is on record as 583.000 dpm/mg; in [3] (100 mM imidazole (no inhibitor: 667.000)), 599.000 dpm/mg; in [3] (300 mM imidazole (no inhibitor: 667.000)), 459.000 dpm/mg. Also, the “effect on GGT activity” value in data set [4] (10 mM to 100 mM imidazole) is “no effect”.

B1: LH2b: recombinant human lysyl hydroxylase isoform 2, alternatively spliced form b (protein, listed as Homo sapiens)
chain: MGGCTVKPQLLLLALVLHPWNPCLGADSEKPSSIPTDKLLVITVATKESDGFHRFMQSAKYFNYTVKVLGQGEEWRGGDGINSIGGGQKVRLMKEVMEHYADQDDLVVMFTECFDVIFAGGPEEVLKKFQKANHKVVFAADGILWPDKRLADKYPVVHIGKRYLNSGGFIGYAPYVNRIVQQWNLQDNDDDQLFYTKVYIDPLKREAINITLDHKCKIFQTLNGAVDEVVLKFENGKARAKNTFYETLPVAINGNGPTKILLNYFGNYVPNSWTQDNGCTLCEFDTVDLSAVDVHPNVSIGVFIEQPTPFLPRFLDILLTLDYPKEALKLFIHNKEVYHEKDIKVFFDKAKHEIKTIKIVGPEENLSQAEARNMGMDFCRQDEKCDYYFSVDADVVLTNPRTLKILIEQNRKIIAPLVTRHGKLWSNFWGALSPDGYYARSEDYVDIVQGNRVGVWNVPYMANVYLIKGKTLRSEMNERNYFVRDKLDPDMALCRNAREMTLQREKDSPTPETFQMLSPPKGVFMYISNRHEFGRLLSTANYNTSHYNNDLWQIFENPVDWKEKYINRDYSKIFTENIVEQPCPDVFWFPIFSEKACDELVEEMEHYGKWSGGKHHDSRISGGYENVPTDDIHMKQVDLENVWLDFIREFIAPVTLKVFAGYYTKGFALLNFVVKYSPERQRSLRPHHDASTFTINIALNNVGEDFQGGGCKFLRYNCSIESPRKGWSFMHPGRLTHLHEGLPVKNGTRYIAVSFIDP
modifications: His6 tag; CDS (1)..(2277)
notes: recombinant human lysyl hydroxylase isoform 2, alternatively spliced form b
Turning to B1, the “generation of GT activity” value in data set [5] was “LH3 was the only one being able to generate GT activity”; in data set [8] it was “did not generated GT activity”. The “LH activity” value in data set [6] is “no LH activity can be found”. Also, the “GGT activity in cell lysates” value in [7] is listed as “none of these recombinant proteins had detectable GGT activity”.

B2: C. elegans LH: protein produced from Caenorhabditis elegans lysyl hydroxylase cDNA (amino acids 14-730) (protein)
chain: LLATTITDLPELVVVTVATENTDGLKRLLESAKAFDINIEVLGLGEKWNGGDTRIEQGGGQKIRILSDWIEKYKDASDTMIMFVDAYDVVFNADSTTILRKFFEHYSEKRLLFGAEPFCWPDQSLAPEYPIVEFGKRFLNSGLFMGYGPEMHKILKLKSVEDKDDDQLYYTMIYLDEKLRKELNMDLDSMSKIFQNLNGVIEDVELQFKEDGTPEAYNAAYNTKPLIVHGNGPSKSHLNYLGNYLGNRWNSQLGCRTCGLEVKESEEVPLIALNLFISKPIPFIEEVLQKIAEFDYPKEKIALYIYNNQPFSIKNIQDFLQKHGKSYYTKRVINGVTEIGDREARNEAIEWNKARNVEFAFLMDGDAYFSEPKVIKDLIQYSKTYDVGIIAPMIGQPGKLFTNFWGAIAANGYYARSEDYMAIVKGNRVGYWNVPFITSAVLFNKEKLEAMKDAYSYNKNLDPDMSMCKFARDNGHFLYIDNEKYYGFLIVSDEYAETVTEGKWHPEMWQIFENRELWEARYIHPGYHKIMEPEHVVDQACPDVYDFPLMSERFCEELIEEMEGFGRWSDGSNNDKRLAGGYENVPTRDIHMNQVGFERQWLYFMDTYVRPVQEKTFIGYYHQPVESNMMFVVRYKPEEQPSLRPHHDASTFSIDIALNKKGRDYEGGGVRYIRYNCTVPADEVGYAMMFPGRLTHLHEGLATTKGTRYIMVSFINP
modifications: Caenorhabditis elegans
As for B2, in [9], the GGT enzyme activity was 30.700 dpm/mg soluble protein and 21.000 dpm/mg soluble protein.

In general, inhibition refers to the change of the read-out against control, counted positive when it falls. A higher inhibition goes with a strong effect.

Source of the values: patent US7951562B2, “Method for glycosylating hydroxylysine residues in polypeptides or peptides” (Oulun Yliopisto, priority 2000, dated 2011).
